Our source for the TGI values is PubChem BioAssay (NCI).

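A five-concentration, 48-hour dose response in 96-well plates underlies each endpoint, interpolated linearly between surrounding concentrations. TGI: concentration producing complete growth inhibition.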 Bounds are passed on as bounds.

Common to all, as to assay: NCI tumour cell line growth inhibition, 48 h
Experiment [1] relates to CCRF-CEM leukemia.
The test system of experiment [2] is OVCAR-3 ovarian.
Experiment [3] has as its system NCI/ADR-RES ovarian.
The subject of experiment [4] is HCC-2998 colon.
Experiment [5] deals with LOX IMVI melanoma.
In experiment [6] the test system is SK-OV-3 ovarian.
In experiment [7] the test system is U251 CNS.
Experiment [8] deals with OVCAR-4 ovarian.
Experiment [9] concerns CAKI-1 renal.
The test system of experiment [10] is OVCAR-5 ovarian.
Experiment [11] concerns A549 NSCLC.
The test system of experiment [12] is KM12 colon.
In experiment [13] the test system is PC-3 prostate.
Experiment [14] relates to HL-60(TB) leukemia.
Experiment [15] concerns TK-10 renal.
Experiment [16] relates to NCI-H226 lung.
Experiment [17] has as its system HCT-116 colon.
Experiment [18] has as its system MDA-MB-231 breast.
Experiment [19] deals with MALME-3M melanoma.

For `CN1C2=C(CC3=C1CC(C)(C)CC3=O)C(=O)CC(C)(C)C2`, the TGI in experiment [1], in experiment [2], in experiment [3], in [4], in [5] and in experiment [6] was greater than 100 µM throughout. Moreover, the TGI in experiment [7], in experiment [8], in [9], in experiment [10], in [11] and in [12] was greater than 100 µM throughout. The TGI in experiment [13], in experiment [14], in experiment [15] and in [16] was greater than 100 µM throughout.

As to `N#C[C@@H](c1nc2ccccc2s1)c1ncccc1[N+](=O)[O-]`, the TGI in experiment [2] was 10.6 µM; in experiment [3], 19.4 µM; in experiment [4], 28.5 µM; in experiment [17], 14 µM; in experiment [5] it was 13.9 µM; in experiment [6], greater than 61.1 µM. Further, the TGI was 17.4 µM in [18]; 11.7 µM in [7]; greater than 100 µM in [8]; greater than 100 µM in experiment [9]; greater than 31.6 µM in [10]; 18.1 µM in experiment [11]. In addition, the TGI in experiment [12] is greater than 62.9 µM; in [13], 18.1 µM; in experiment [15], 74.7 µM; in experiment [16] it was 87.8 µM.

Consider `CN1CN(c2ccccc2)C2(CCN(Cc3csc4ccccc34)CC2)C1=O`, for which the TGI in experiment [1] was greater than 100 µM; in [2] it was 27.4 µM; in [3] it was 61.1 µM; in experiment [19], 45.5 µM; in [4], 42.5 µM; in [17] it was 19.2 µM. Also, the TGI in [5] is 25.2 µM; in experiment [6] it was greater than 100 µM; in experiment [9] it was greater than 100 µM; in experiment [10] it was 25.1 µM; in experiment [11] it was 74 µM; in [12], 26.8 µM. In addition, the TGI in experiment [13] was 43 µM; in experiment [14], 32.8 µM; in experiment [15] it was 41.2 µM; in experiment [16], greater than 100 µM.

For the compound `COc1cc(C2=C(c3cc(OC)c4ccccc4c3OC)C(=O)c3ccccc3C2=O)c(OC)c2ccccc12`, the TGI in experiment [1], in [2], in experiment [3], in experiment [19], in experiment [17] and in [5] was greater than 100 µM each time. For the same compound, the TGI in [6], in experiment [7], in experiment [8], in experiment [9], in [10] and in experiment [11] was greater than 100 µM throughout. The TGI in experiment [12], in [13], in experiment [14], in experiment [15] and in experiment [16] was greater than 100 µM in each case.

Regarding `O=C(NNC(=S)Nc1ccccc1)c1cc(-c2ccccc2)nc2ccccc12`, the TGI in experiment [1] worked out at 29.9 µM; in experiment [2], 24.4 µM; in experiment [3], 52.1 µM; in experiment [19] it was 82.4 µM; in [4], 30.5 µM; in experiment [17], 28.5 µM. Besides, the TGI was found to be 43.2 µM in [6]; 52.5 µM in [18]; 30.8 µM in experiment [7]; 56.2 µM in [8]; 64.8 µM in experiment [9]; 36.3 µM in experiment [10]. Also, the TGI in experiment [11] is 41.2 µM; in experiment [12] it was greater than 100 µM; in experiment [13], 56.4 µM; in [15] it was greater than 100 µM; in experiment [16], 63.8 µM.

Consider `N#CC(C#N)=C1c2ccccc2C(=NN)c2ccccc21`, for which the TGI in experiment [1], in [2], in [3], in [19], in experiment [4] and in experiment [6] was greater than 100 µM in each case. In addition, the TGI in [18], in experiment [7], in experiment [9], in [10], in experiment [12] and in [13] was greater than 100 µM throughout. In addition, the TGI in experiment [15] and in [16] was greater than 100 µM in each case.

Turning to `CCOC(=O)c1nnsc1NC(=O)Nc1ccc(Cc2ccc(NC(=O)Nc3snnc3C(=O)OCC)cc2)cc1`, the TGI in [1], in experiment [2], in [3], in experiment [19], in experiment [4] and in experiment [17] was greater than 100 µM each time. Further, the TGI in experiment [6] is 54.8 µM; in [18] it was 95.6 µM; in [7], greater than 100 µM; in [8], greater than 100 µM; in experiment [9], greater than 100 µM; in [10] it was greater than 100 µM. The TGI in [11], in [12], in [13], in experiment [15] and in [16] was greater than 100 µM throughout.

As to `O=c1[nH]nc(-c2ccccc2)n1Nc1ccccc1`, the TGI in experiment [1], in [2], in experiment [3], in experiment [19], in [4] and in [17] was greater than 100 µM each time. The TGI in experiment [5], in experiment [6], in [18], in experiment [7], in [8] and in experiment [9] was greater than 100 µM each time. The TGI in experiment [10], in experiment [11], in experiment [12], in experiment [14], in experiment [15] and in experiment [16] was greater than 100 µM in each case.

`CCN(C(=O)N[C@@H](Cc1ccccc1)C(=O)N[C@@H](CC(C)C)C(=O)OC)c1ccccc1`: the TGI in experiment [1] was greater than 100 µM; in experiment [2] it was 72 µM; in experiment [3], greater than 100 µM; in [4] it was greater than 100 µM; in experiment [17], 39.2 µM; in [5], 30.1 µM. For the same compound, the TGI in experiment [6] was greater than 100 µM; in experiment [18], greater than 100 µM; in [7] it was 72.7 µM; in experiment [8], greater than 100 µM; in experiment [9], 84.7 µM; in experiment [10], 66.6 µM. The TGI in experiment [11] is greater than 100 µM; in experiment [12] it was greater than 100 µM; in experiment [13], 97.4 µM; in experiment [15] it was greater than 100 µM; in experiment [16], 47.6 µM.

As for `Cc1ccc(Cc2n[nH]c(=O)n2Nc2ccccc2)cc1`, the TGI in [1], in [2], in experiment [3], in experiment [19], in experiment [4] and in [17] was greater than 100 µM throughout. Moreover, the TGI in experiment [5], in experiment [6], in [18], in experiment [7], in [8] and in [9] was greater than 100 µM throughout. Further, the TGI in experiment [10], in experiment [11], in experiment [12], in [14], in experiment [15] and in experiment [16] was greater than 100 µM throughout.

Regarding `CCCc1cc(=O)oc2c3c(c4c(c12)OC(C)(C)CC4)O[C@@H](C)[C@H](C)[C@H]3O`, the TGI turned out to be 17.8 µM in experiment [1]; 32.7 µM in experiment [2]; 29.1 µM in experiment [3]; 28 µM in experiment [19]; 28.3 µM in experiment [4]; 22.2 µM in [17]. Further, the TGI in experiment [5] was 30 µM; in experiment [6], 32.6 µM; in experiment [18], 11.1 µM; in experiment [7], 29.6 µM; in [8] it was 22.5 µM; in experiment [9], 49.7 µM. In addition, the TGI in experiment [10] turned out to be 26.3 µM; in [11], 25.7 µM; in [12], 29.9 µM; in experiment [13] it was 15.5 µM; in [16] it was 31.6 µM.

Turning to `COc1cc(C=O)cc(/C=N/n2c3ccccc3c3ccccc32)c1O`, the TGI was greater than 100 µM in experiment [1]; greater than 100 µM in experiment [2]; greater than 100 µM in experiment [19]; 67.4 µM in [4]; greater than 100 µM in experiment [17]; greater than 100 µM in experiment [5]. The TGI in experiment [6], in experiment [18], in experiment [7], in experiment [8], in experiment [9] and in [10] was greater than 100 µM in each case. Besides, the TGI in experiment [11], in experiment [12], in experiment [13], in [14], in experiment [15] and in [16] was greater than 100 µM each time.

For `NC(=O)Nc1ccc(S(=O)(=O)Nc2ccc(S(N)(=O)=O)cc2)cc1`, the TGI in experiment [1], in experiment [2], in experiment [3], in experiment [19], in experiment [17] and in [5] was greater than 100 µM in each case. Besides, the TGI in experiment [18], in [7], in [8], in experiment [9], in experiment [10] and in experiment [11] was greater than 100 µM throughout. In addition, the TGI in experiment [12], in [13], in experiment [15] and in experiment [16] was greater than 100 µM in each case.

For `C=C[C@@]1(C)CC[C@@H]2[C@@]3(C1)O[C@H]3CC1[C@](C)(C(=O)OC)CCC[C@@]12C` (some centres undefined), the TGI worked out at 31.9 µM in experiment [2]; 42.1 µM in experiment [3]; 35 µM in experiment [19]; 31.6 µM in experiment [4]; 28.1 µM in experiment [17]; 69.6 µM in experiment [6]. The TGI in experiment [18] is 58.1 µM; in [7], 49.6 µM; in experiment [8], greater than 100 µM; in experiment [9], greater than 100 µM; in experiment [10] it was 32.3 µM; in experiment [11] it was 54.7 µM. Moreover, the TGI in experiment [12] is greater than 100 µM; in experiment [13], greater than 100 µM; in experiment [15], 51.7 µM.

`O=C1N=C(SC(SC2=NC(=O)C3(NN2)c2ccccc2-c2ccccc23)=C(SC2=NC(=O)C3(NN2)c2ccccc2-c2ccccc23)SC2=NC(=O)C3(NN2)c2ccccc2-c2ccccc23)NNC12c1ccccc1-c1ccccc12`: the TGI in [1], in experiment [3], in experiment [19], in experiment [4], in [17] and in experiment [5] was greater than 10 µM throughout. Moreover, the TGI in experiment [6], in experiment [18], in experiment [8], in [9], in [11] and in experiment [12] was greater than 10 µM each time. Moreover, the TGI in [13], in experiment [15] and in experiment [16] was greater than 10 µM in each case.

Regarding `Cc1ccc(S(=O)(=O)N2CCC(=O)c3cc(Br)ccc32)cc1`, the TGI in experiment [2] was 61 µM; in experiment [3], 58.9 µM; in experiment [19], greater than 100 µM; in [4] it was greater than 54.1 µM; in experiment [17] it was greater than 100 µM; in experiment [5], greater than 64.6 µM. Further, the TGI in experiment [6] was 63.2 µM; in experiment [18] it was greater than 54.5 µM; in experiment [7], greater than 35 µM; in [8] it was greater than 73.9 µM; in experiment [9], greater than 100 µM; in experiment [10] it was greater than 100 µM. Moreover, the TGI in experiment [11] is 32.1 µM; in [12], greater than 26.1 µM; in experiment [13] it was 75.4 µM; in experiment [15] it was 54.4 µM; in experiment [16] it was greater than 100 µM.
